The NIST ThermoML archive (doi:10.1021/acs.jced.5b00838)

Test: excess molar enthalpy (molar enthalpy of mixing); xn = mol fraction of the nth substance listed
Conditions: 100 kPa, Liquid, isothermal titration calorimetry

CCCCCCOCC [1-ethoxyhexane] + CC#N
Conditions | excess molar enthalpy [kJ/mol]
298.15 K, x2 = 0.0307 | 0.117
298.15 K, x2 = 0.0596 | 0.254
298.15 K, x2 = 0.0868 | 0.371
298.15 K, x2 = 0.1125 | 0.469
298.15 K, x2 = 0.1368 | 0.554
298.15 K, x2 = 0.1816 | 0.694
298.15 K, x2 = 0.222 | 0.802
298.15 K, x2 = 0.2586 | 0.887
298.15 K, x2 = 0.2919 | 0.955
298.15 K, x2 = 0.3223 | 1.01
298.15 K, x2 = 0.3759 | 1.09
298.15 K, x2 = 0.4217 | 1.13
298.15 K, x2 = 0.4612 | 1.16
298.15 K, x2 = 0.5038 | 1.18
298.15 K, x2 = 0.5401 | 1.18
298.15 K, x2 = 0.5715 | 1.18
298.15 K, x2 = 0.5988 | 1.17
298.15 K, x2 = 0.6274 | 1.15
298.15 K, x2 = 0.6521 | 1.13
298.15 K, x2 = 0.6738 | 1.11
298.15 K, x2 = 0.6959 | 1.08
298.15 K, x2 = 0.7006 | 1.07
298.15 K, x2 = 0.7152 | 1.05
298.15 K, x2 = 0.7222 | 1.03
298.15 K, x2 = 0.7322 | 1.02
298.15 K, x2 = 0.7452 | 0.994
298.15 K, x2 = 0.7473 | 0.998
298.15 K, x2 = 0.7608 | 0.973
298.15 K, x2 = 0.7698 | 0.946
298.15 K, x2 = 0.796 | 0.887
298.15 K, x2 = 0.8241 | 0.813
298.15 K, x2 = 0.8419 | 0.76
298.15 K, x2 = 0.8604 | 0.7
298.15 K, x2 = 0.8799 | 0.63
298.15 K, x2 = 0.9002 | 0.548
298.15 K, x2 = 0.9215 | 0.453
298.15 K, x2 = 0.9362 | 0.381
298.15 K, x2 = 0.9514 | 0.3
298.15 K, x2 = 0.967 | 0.211
298.15 K, x2 = 0.9832 | 0.111
308.15 K, x2 = 0.0303 | 0.139
308.15 K, x2 = 0.0588 | 0.281
308.15 K, x2 = 0.0857 | 0.401
308.15 K, x2 = 0.1111 | 0.504
308.15 K, x2 = 0.1352 | 0.594
308.15 K, x2 = 0.1795 | 0.741
308.15 K, x2 = 0.2196 | 0.855
308.15 K, x2 = 0.2559 | 0.944
308.15 K, x2 = 0.2889 | 1.01
308.15 K, x2 = 0.3192 | 1.07
308.15 K, x2 = 0.3726 | 1.15
308.15 K, x2 = 0.4182 | 1.2
308.15 K, x2 = 0.4577 | 1.23
308.15 K, x2 = 0.5002 | 1.25
308.15 K, x2 = 0.5366 | 1.25
308.15 K, x2 = 0.568 | 1.24
308.15 K, x2 = 0.5954 | 1.23
308.15 K, x2 = 0.6241 | 1.21
308.15 K, x2 = 0.6489 | 1.19
308.15 K, x2 = 0.6707 | 1.17
308.15 K, x2 = 0.6929 | 1.14
308.15 K, x2 = 0.7087 | 1.11
308.15 K, x2 = 0.7123 | 1.11
308.15 K, x2 = 0.7294 | 1.08
308.15 K, x2 = 0.73 | 1.07
308.15 K, x2 = 0.7446 | 1.05
308.15 K, x2 = 0.7526 | 1.03
308.15 K, x2 = 0.7582 | 1.02
308.15 K, x2 = 0.7767 | 0.974
308.15 K, x2 = 0.8023 | 0.909
308.15 K, x2 = 0.8297 | 0.83
308.15 K, x2 = 0.847 | 0.774
308.15 K, x2 = 0.8651 | 0.709
308.15 K, x2 = 0.884 | 0.635
308.15 K, x2 = 0.9037 | 0.551
308.15 K, x2 = 0.9243 | 0.453
308.15 K, x2 = 0.9385 | 0.38
308.15 K, x2 = 0.9531 | 0.3
308.15 K, x2 = 0.9683 | 0.21
308.15 K, x2 = 0.9839 | 0.11

CCCCCCCOC [1-methoxyheptane] + CC#N
excess molar enthalpy [kJ/mol]
Conditions | 298.15 K | 308.15 K
x2 = 0.0304 | – | 0.135
x2 = 0.0307 | 0.122 | –
x2 = 0.059 | – | 0.252
x2 = 0.0595 | 0.24 | –
x2 = 0.0859 | – | 0.354
x2 = 0.0867 | 0.342 | –
x2 = 0.1114 | – | 0.443
x2 = 0.1123 | 0.43 | –
x2 = 0.1354 | – | 0.521
x2 = 0.1366 | 0.506 | –
x2 = 0.1799 | – | 0.653
x2 = 0.1813 | 0.633 | –
x2 = 0.22 | – | 0.757
x2 = 0.2216 | 0.73 | –
x2 = 0.2563 | – | 0.84
x2 = 0.2582 | 0.81 | –
x2 = 0.2894 | – | 0.906
x2 = 0.2914 | 0.873 | –
x2 = 0.3197 | – | 0.96
x2 = 0.3218 | 0.925 | –
x2 = 0.3732 | – | 1.04
x2 = 0.3754 | 1 | –
x2 = 0.4188 | – | 1.09
x2 = 0.4212 | 1.05 | –
x2 = 0.4583 | – | 1.12
x2 = 0.4607 | 1.08 | –
x2 = 0.5008 | – | 1.14
x2 = 0.5033 | 1.1 | –
x2 = 0.5372 | – | 1.15
x2 = 0.5396 | 1.11 | –
x2 = 0.5686 | – | 1.15
x2 = 0.571 | 1.11 | –
x2 = 0.596 | – | 1.14
x2 = 0.5983 | 1.1 | –
x2 = 0.6246 | – | 1.13
x2 = 0.6269 | 1.09 | –
x2 = 0.6494 | – | 1.11
x2 = 0.6517 | 1.07 | –
x2 = 0.6712 | – | 1.09
x2 = 0.6733 | 1.05 | –
x2 = 0.6934 | – | 1.07
x2 = 0.6955 | 1.03 | –
x2 = 0.7111 | 0.999 | 1.07
x2 = 0.7148 | 1 | 1.04
x2 = 0.7318 | 0.98 | 1.04
x2 = 0.7322 | 0.97 | 1.02
x2 = 0.7469 | 0.956 | 0.997
x2 = 0.7547 | 0.933 | 0.991
x2 = 0.7604 | 0.933 | 0.966
x2 = 0.7692 | – | 0.948
x2 = 0.7786 | 0.888 | –
x2 = 0.7954 | – | 0.889
x2 = 0.8041 | 0.832 | –
x2 = 0.8236 | – | 0.815
x2 = 0.8313 | 0.763 | –
x2 = 0.8414 | – | 0.763
x2 = 0.8485 | 0.714 | –
x2 = 0.86 | – | 0.702
x2 = 0.8664 | 0.657 | –
x2 = 0.8795 | – | 0.632
x2 = 0.8851 | 0.591 | –
x2 = 0.8999 | – | 0.55
x2 = 0.9047 | 0.514 | –
x2 = 0.9212 | – | 0.455
x2 = 0.9251 | 0.424 | –
x2 = 0.936 | – | 0.382
x2 = 0.9391 | 0.356 | –
x2 = 0.9512 | – | 0.301
x2 = 0.9536 | 0.28 | –
x2 = 0.9669 | – | 0.212
x2 = 0.9686 | 0.194 | –
x2 = 0.9832 | – | 0.111
x2 = 0.9841 | 0.0981 | –

CCCCCOCCC [1-propoxypentane] + CC#N
Conditions | excess molar enthalpy [kJ/mol]
298.15 K, x2 = 0.031 | 0.172
298.15 K, x2 = 0.0602 | 0.324
298.15 K, x2 = 0.0876 | 0.451
298.15 K, x2 = 0.1135 | 0.559
298.15 K, x2 = 0.1379 | 0.65
298.15 K, x2 = 0.183 | 0.8
298.15 K, x2 = 0.2236 | 0.914
298.15 K, x2 = 0.2604 | 1
298.15 K, x2 = 0.2938 | 1.07
298.15 K, x2 = 0.3243 | 1.13
298.15 K, x2 = 0.3781 | 1.2
298.15 K, x2 = 0.424 | 1.25
298.15 K, x2 = 0.4635 | 1.27
298.15 K, x2 = 0.5061 | 1.28
298.15 K, x2 = 0.5424 | 1.28
298.15 K, x2 = 0.5738 | 1.27
298.15 K, x2 = 0.6011 | 1.26
298.15 K, x2 = 0.6296 | 1.24
298.15 K, x2 = 0.6542 | 1.21
298.15 K, x2 = 0.6758 | 1.19
298.15 K, x2 = 0.6979 | 1.16
298.15 K, x2 = 0.7171 | 1.13
298.15 K, x2 = 0.734 | 1.1
298.15 K, x2 = 0.7491 | 1.07
298.15 K, x2 = 0.7625 | 1.04
298.15 K, x2 = 0.7644 | 1.01
298.15 K, x2 = 0.7829 | 0.971
298.15 K, x2 = 0.8022 | 0.923
298.15 K, x2 = 0.8226 | 0.867
298.15 K, x2 = 0.844 | 0.8
298.15 K, x2 = 0.8666 | 0.721
298.15 K, x2 = 0.8807 | 0.667
298.15 K, x2 = 0.8953 | 0.606
298.15 K, x2 = 0.9104 | 0.537
298.15 K, x2 = 0.926 | 0.46
298.15 K, x2 = 0.9421 | 0.373
298.15 K, x2 = 0.9531 | 0.31
298.15 K, x2 = 0.9644 | 0.241
298.15 K, x2 = 0.976 | 0.167
298.15 K, x2 = 0.9879 | 0.0866
308.15 K, x2 = 0.0305 | 0.179
308.15 K, x2 = 0.0592 | 0.334
308.15 K, x2 = 0.0863 | 0.465
308.15 K, x2 = 0.1118 | 0.575
308.15 K, x2 = 0.136 | 0.67
308.15 K, x2 = 0.1806 | 0.823
308.15 K, x2 = 0.2208 | 0.942
308.15 K, x2 = 0.2572 | 1.03
308.15 K, x2 = 0.2904 | 1.11
308.15 K, x2 = 0.3207 | 1.16
308.15 K, x2 = 0.3742 | 1.24
308.15 K, x2 = 0.4199 | 1.29
308.15 K, x2 = 0.4594 | 1.32
308.15 K, x2 = 0.502 | 1.33
308.15 K, x2 = 0.5383 | 1.33
308.15 K, x2 = 0.5697 | 1.32
308.15 K, x2 = 0.6022 | 1.31
308.15 K, x2 = 0.6301 | 1.28
308.15 K, x2 = 0.6543 | 1.26
308.15 K, x2 = 0.6756 | 1.23
308.15 K, x2 = 0.6944 | 1.21
308.15 K, x2 = 0.7137 | 1.17
308.15 K, x2 = 0.7173 | 1.16
308.15 K, x2 = 0.7308 | 1.14
308.15 K, x2 = 0.7382 | 1.12
308.15 K, x2 = 0.7459 | 1.11
308.15 K, x2 = 0.7595 | 1.08
308.15 K, x2 = 0.7603 | 1.07
308.15 K, x2 = 0.7838 | 1.01
308.15 K, x2 = 0.8089 | 0.946
308.15 K, x2 = 0.8355 | 0.862
308.15 K, x2 = 0.8524 | 0.803
308.15 K, x2 = 0.8699 | 0.735
308.15 K, x2 = 0.8882 | 0.659
308.15 K, x2 = 0.9072 | 0.57
308.15 K, x2 = 0.9271 | 0.469
308.15 K, x2 = 0.9409 | 0.392
308.15 K, x2 = 0.955 | 0.308
308.15 K, x2 = 0.9695 | 0.215
308.15 K, x2 = 0.9845 | 0.113
